These results are taken from patent US9346802B2, “CARM1 inhibitors and uses thereof” (Epizyme, Inc., priority 2013, dated 2016).

The assay addresses T1, Human CARM1 (PRMT4) (Homo sapiens, UniProt Q86X55).
T1 construct: Flag-CARM1-His was eluted with 200 ug/ml FLAG peptide in buffer A; made in house; host or cells: HEK 293F cells infected with recombinant baculovirus (pFastBacMam)
T1 sequence (Q86X55 1-585 isoform Q86X55-1): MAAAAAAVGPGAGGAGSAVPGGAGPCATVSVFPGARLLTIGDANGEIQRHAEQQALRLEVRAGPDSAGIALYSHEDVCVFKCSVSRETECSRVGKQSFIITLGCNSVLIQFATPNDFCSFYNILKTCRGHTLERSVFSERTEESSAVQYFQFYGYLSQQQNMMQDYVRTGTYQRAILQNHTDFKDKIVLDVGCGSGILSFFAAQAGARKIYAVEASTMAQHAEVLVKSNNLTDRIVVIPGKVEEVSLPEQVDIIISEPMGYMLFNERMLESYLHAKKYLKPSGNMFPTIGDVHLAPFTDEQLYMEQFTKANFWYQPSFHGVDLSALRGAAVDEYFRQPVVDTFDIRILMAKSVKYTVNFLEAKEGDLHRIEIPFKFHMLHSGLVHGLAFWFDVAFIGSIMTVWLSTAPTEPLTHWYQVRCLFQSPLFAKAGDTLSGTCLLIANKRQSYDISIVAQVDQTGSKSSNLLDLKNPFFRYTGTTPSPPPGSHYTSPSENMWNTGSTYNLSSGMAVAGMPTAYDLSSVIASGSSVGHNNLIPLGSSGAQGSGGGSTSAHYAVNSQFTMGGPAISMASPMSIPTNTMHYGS
The assay is described as follows: CARM1 enzyme assay on peptide substrate (3H-SAM Flashplate). It counts as biochemical. As to conditions: CARM1 0.25 nM, 3H-SAM 30 nM, peptide 250 nM, 30 min preincubation; read-out: Biochem IC50. The text has this: Peptide representative of human histone H3 residues 16-30 was synthesized with an N-terminal linker-affinity tag motif and a C-terminal amide cap by 21st Century Biochemicals. The peptide was purified by high-performance liquid chromatography (HPLC) to greater than 95% purity and confirmed by liquid chromatography mass spectrometry (LC-MS). The sequence was Biot-Ahx-[…]-amide and contained a monomethylated arginine at position 26 (SEQ ID NO.:1).
Human CARM1 (PRMT4) (NM_199141.1) transcript clone was amplified from an HEK 293 cDNA library, incorporating a flanking 5′ sequence encoding a FLAG tag ([…]) (SEQ ID NO.:2) fused directly to Ala 2 of CARM1 and 3′ sequence encoding a hexa His sequence ([…]) (SEQ ID NO.:3) fused directly to Ser 608. The gene sequence encoding isoform1 containing a deletion of amino acids 539-561 was amplified subsequently and subcloned into pFastBacMam (Viva Biotech).
Recombinant baculovirus were generated according to Bac-to-Bac kit instructions (Life Technologies). Protein over-expression was accomplished by infecting exponentially growing HEK 293F cell culture at 1.3×10^6 cell/ml with virus (MOI=10) in the presence of 8 mM sodium butyrate. Infections were carried out at 37° C. for 48 hours, harvested by centrifugation, and stored at −80° C. for purification.
Expressed full-length human Flag- and His-tagged CARM1 protein was purified from cell paste by anti-flag M2 affinity chromatography with resin equilibrated with buffer containing 20 mM Tris, 150 mM NaCl, 5% glycerol, pH 7.8. Column was washed with 500 mM NaCl in buffer A and Flag-CARM1-His was eluted with 200 ug/ml FLAG peptide in buffer A. Pooled fractions were dialyzed in 20 mM Tris, 150 mM NaCl, 5% glycerol and 1 mM DTT, pH 7.8. The purity of recovered protein was 94.
The assays were all performed in a buffer consisting of 20 mM Bicine (pH=7.6), 1 mM TCEP, 0.005% BSG, and 0.002% Tween 20, prepared on the day of use. Compounds in 100% DMSO (1 ul) were spotted into a polypropylene 384-well V-bottom plates (Greiner) using a Platemate Plus outfitted with a 384-channel head (Thermo Scientific). DMSO (1 ul) was added to Columns 11, 12, 23, 24, rows A-H for the maximum signal control and 1 ul of SAH, a known product and inhibitor of CARM1, was added to columns 11, 12, 23, 24, rows I-P for the minimum signal control. A cocktail (40 ul) containing the CARM1 enzyme was added by Multidrop Combi (Thermo-Fisher). The compounds were allowed to incubate with CARM1 for 30 min at room temperature, then a cocktail (10 ul) containing ^3H-SAM and peptide was added to initiate the reaction (final volume=51 ul). The final concentrations of the components were as follows: CARM1 was 0.25 nM, ^3H-SAM was 30 nM, peptide was 250 nM, SAH in the minimum signal control wells was 1 mM, and the DMSO concentration was 2%. The assays were stopped by the addition of non-radiolabeled SAM (10 ul) to a final concentration of 300 uM, which dilutes the ^3H-SAM to a level where its incorporation into the peptide substrate is no longer detectable. 50 ul of the reaction in the 384-well polypropylene plate was then transferred to a 384-well Flashplate and the biotinylated peptides were allowed to bind to the streptavidin surface for at least 1 hour before being washed once with 0.1% Tween20 in a Biotek ELx405 plate washer. The plates were then read in a PerkinElmer TopCount plate reader to measure the quantity of ^3H-labeled peptide bound to the Flashplate surface, measured as disintegrations per minute (dpm) or alternatively, referred to as counts per minute (cpm).
[formula] where dpm=disintegrations per minute, cmpd=signal in assay well, and min and max are the respective minimum and maximum signal controls.
[formula] where top and bottom are the normally allowed to float, but may be fixed at 100 or 0 respectively in a 3-parameter fit. The Hill Coefficient normally allowed to float but may also be fixed at 1 in a 3-parameter fit. […]

Each structure is given as a SMILES string. pIC50: −log10 of the molar value.

As for `CNCC(O)COc1cccc(-c2nc(-c3cccc4ncccc34)cc(N(C)CCC#N)n2)c1` (centres unmarked) [Compound 44-1], the pIC50 is 6.00 to 7.00.

As for `CNCC(O)COc1cc(Cl)cc(-c2nc(-c3cc(C)nc(C)c3)c(C)c(N(C)C3CCOCC3)n2)c1` (centres unmarked) [Compound 63-1], the negative logarithm of the IC50 (pIC50) is 6.00 to 7.00.

On to `CNCC(O)COc1cccc(-c2nc(-c3cncnc3)cc(N(CCOC)CCOC)n2)c1` (centres unmarked) [Compound 43-1], for which the pIC50 is 6.00 to 7.00.

Take `CNCC(O)COc1cccc(-c2nc(NCCCN3CCCC3=O)cc(-c3ccc(S(C)(=O)=O)cc3)n2)c1` (centres unmarked) [Compound 73-1]: the negative-log IC50 (pIC50) was 6.00 to 7.00.

Turning to `CNCC(O)COc1cccc(-c2nc(-c3cc4ccccc4o3)cc(N(C)CCC#N)n2)c1` (centres unmarked) [Compound 35-1], the negative logarithm of the IC50 (pIC50) was 6.00 to 7.00.

For `CNCC(O)COc1cccc(-c2nc(N3CCOCC3)nc(N[C@H]3CCOC3)c2C)c1` (some centres unmarked) [Compound 13-2], the negative logarithm of the IC50 (pIC50) is 6.00 to 7.00.

As for `CNCC(O)COc1cccc(-c2nc(C(C)C)c(C)c(N(C)C3CCOCC3)n2)c1` (centres unmarked) [Compound 21-1], the negative logarithm of the IC50 (pIC50) was 6.00 to 7.00.

Turning to `CNCC(O)COc1cccc(-c2nc(-c3ccc(OC)c(OC)c3)cc(N(C)C3CCOCC3)n2)c1` (centres unmarked) [Compound 61-1], the negative logarithm of the IC50 (pIC50) was 5.52 to 6.00.

On to `CNCC(O)COc1cccc(-c2nc(NC(C)C)cc(NC3CCOCC3)n2)c1` (centres unmarked) [Compound 16-1], for which the pIC50 was 6.00 to 7.00.

`CNCC(O)COc1cccc(-c2nc(-c3ccc(S(C)(=O)=O)cc3)cc(N(CCOC)CCOC)n2)c1` (centres unmarked) [Compound 72-1]: the negative logarithm of the IC50 (pIC50) is 6.00 to 7.00.

In the case of `CNCC(O)COc1cc(Cl)cc(-c2nc(C(C)C)cc(N(C)C3CCOCC3)n2)c1` (centres unmarked) [Compound 31-1], the pIC50 is 6.00 to 7.00.

As to `CNCC(O)COc1cc(Cl)cc(-c2nc(-c3ccc(OC)c(OC)c3)cc(N(CCOC)CCOC)n2)c1` (centres unmarked) [Compound 75-1], the pIC50 is 6.00 to 7.00.

As for `CNCC(O)COc1cccc(-c2cc(N(C)C3CCOCC3)nc(C)n2)c1` (centres unmarked) [Compound 1-2], the negative-log IC50 (pIC50) is 6.00 to 7.00.

Regarding `CNCC(O)COc1cccc(-c2nc(NCCOC)cc(-c3cccc(C#N)c3)n2)c1` (centres unmarked) [Compound 23-1], the pIC50 is 6.00 to 7.00.

In the case of `CNCC(O)COc1cccc(-c2cc(NC3CCOCC3)nc(N(C)C)n2)c1` (centres unmarked) [Compound 3-2], the pIC50 was 6.00 to 7.00.

Turning to `CNCC(O)COc1cccc(-c2nc(NC3CCOCC3)cc(N3CCOCC3)n2)c1` (centres unmarked) [Compound 27-1], the negative-log IC50 (pIC50) is 6.00 to 7.00.

Take `C=C(Cl)c1cc(NC2CCOCC2)nc(-c2cccc(OCC(O)CNC)c2)n1` (centres unmarked) [Compound 17-1]: the pIC50 is 5.52 to 6.00.

As to `CNCC(O)COc1cccc(-c2cc(NC3CCOCC3)nc(-c3ccncc3)n2)c1` (centres unmarked) [Compound 11-2], the pIC50 was 6.00 to 7.00.

With `CNCC(O)COc1cccc(-c2nc(NCCCN3CCCC3=O)cc(-c3ccc4c(c3)OCCO4)n2)c1` (centres unmarked) [Compound 66-1], the negative logarithm of the IC50 (pIC50) is 6.00 to 7.00.

As to `CNCC(O)COc1cccc(-c2nc(-c3ccnc(C)c3)cc(N(C)C3CCOCC3)n2)c1` (centres unmarked) [Compound 40-1], the negative-log IC50 (pIC50) is 6.00 to 7.00.

Regarding `CNCC(O)COc1cccc(-c2cc(NC3CCOCC3)nc(N3CCOCC3)n2)c1` (centres unmarked) [Compound 12-2], the negative logarithm of the IC50 (pIC50) was 6.00 to 7.00.

`CNCC(O)COc1cccc(-c2nc(NCCCN3CCCC3=O)cc(-c3ccc(OC)c(OC)c3)n2)c1` (centres unmarked) [Compound 68-1]: the pIC50 was 6.00 to 7.00.

Regarding `CNCC(O)COc1cccc(-c2cc(NC3CCOCC3)nc(NC(C)C)n2)c1` (centres unmarked) [Compound 9-2], the negative logarithm of the IC50 (pIC50) was 6.00 to 7.00.

As for `CNCC(O)COc1cccc(-c2nc(-c3ccc(C(F)(F)F)nc3)cc(N(C)CCC#N)n2)c1` (centres unmarked) [Compound 54-1], the pIC50 was 6.00 to 7.00.

Take `CNCC(O)COc1cc(Cl)cc(-c2nc(-c3ccc4c(c3)OCCO4)cc(N(CCOC)CCOC)n2)c1` (centres unmarked) [Compound 74-1]: the pIC50 is 6.00 to 7.00.

Regarding `C#Cc1cc(N(C)C2CCOCC2)nc(-c2cccc(OCC(O)CNC)c2)n1` (centres unmarked) [Compound 7-1], the negative-log IC50 (pIC50) is 6.00 to 7.00.

Consider `C#Cc1cc(NC2CCOCC2)nc(-c2cccc(OCC(O)CNC)c2)n1` (centres unmarked) [Compound 5-1], for which the pIC50 was 5.00 to 5.52.

For `CNCC(O)COc1cccc(-c2cc(N[C@H]3CCOC3)nc(C3CCOCC3)n2)c1` (some centres unmarked) [Compound 10-2], the negative logarithm of the IC50 (pIC50) is 6.00 to 7.00.

Regarding `CNCC(O)COc1cccc(-c2nc(-c3c(C)noc3C)cc(N(CCOC)CCOC)n2)c1` (centres unmarked) [Compound 52-1], the pIC50 is 6.00 to 7.00.

Regarding `CNCC(O)COc1cccc(-c2nc(C)cc(N(C)C3CCOCC3)n2)c1` (centres unmarked) [Compound 6-1], the pIC50 was 6.00 to 7.00.

For the molecule `CNCC(O)COc1cc(Cl)cc(-c2nc(-c3cn4ccccc4n3)c(C)c(N(C)C3CCOCC3)n2)c1` (centres unmarked) [Compound 69-1], the pIC50 is 6.00 to 7.00.

In the case of `CNCC(O)COc1cccc(-c2nc(NC3CCOCC3)cc(NC3CC3)n2)c1` (centres unmarked) [Compound 12-1], the pIC50 was 6.00 to 7.00.

As to `CNCC(O)COc1cc(Cl)cc(-c2nc(C3CC3)cc(N(C)C3CCOCC3)n2)c1` (centres unmarked) [Compound 28-1], the pIC50 is 6.00 to 7.00.

With `CNCC(O)COc1cc(Cl)cc(-c2nc(-c3ccnc(OC)c3)cc(N(CCOC)CCOC)n2)c1` (centres unmarked) [Compound 65-1], the pIC50 is 6.00 to 7.00.

`CNCC(O)COc1cc(Cl)cc(-c2nc(-c3ccncc3)c(C)c(N(C)C3CCOCC3)n2)c1` (centres unmarked) [Compound 58-1]: the pIC50 was 6.00 to 7.00.

Regarding `CNCC(O)COc1cccc(-c2nc(NC3CCOCC3)cc(-c3cccc(C#N)c3)n2)c1` (centres unmarked) [Compound 38-1], the negative-log IC50 (pIC50) is 6.00 to 7.00.

Consider `CNCC(O)COc1cccc(-c2nc(NCCOC)cc(-c3cccc4ncccc34)n2)c1` (centres unmarked) [Compound 39-1], for which the negative logarithm of the IC50 (pIC50) is 6.00 to 7.00.

In the case of `CNCC(O)COc1cccc(-c2nc(-c3ccc(C(F)(F)F)nc3)cc(N(CCOC)CCOC)n2)c1` (centres unmarked) [Compound 67-1], the negative logarithm of the IC50 (pIC50) is 6.00 to 7.00.

For `CNCC(O)COc1cc(Cl)cc(-c2nc(N[C@@H]3CCOC3)c(C)c(C3=CCOCC3)n2)c1` (some centres unmarked) [Compound 47-1], the negative logarithm of the IC50 (pIC50) is 6.00 to 7.00.

Take `CNCC(O)COc1cccc(-c2nc(NC3CCOCC3)cc(-c3cnn(CC(C)C)c3)n2)c1` (centres unmarked) [Compound 51-1]: the negative logarithm of the IC50 (pIC50) is 6.00 to 7.00.

Regarding `CNCC(O)COc1cccc(-c2nc(-c3ccnc(OC)c3)cc(N(C)CCC#N)n2)c1` (centres unmarked) [Compound 30-1], the pIC50 was 6.00 to 7.00.
